Data: patent publication US8318898B2, “Synthetic peptides for use as inhibitors of neurotransmitter secretion and as inducers of cellular relaxation” (Universite de Lausanne, priority 2005, dated 2012)
* marks the point of attachment. Decanoyl = CCCCCCCCCC(=O)*; CH2Cl = ClC*

Experiments:
[1] = system: PC12 cells; assay: Inhibition of [3H]norepinephrine neurosecretion by PC12 cells; format: cell-based, rat
Protocol: Using the neurosecretion assay described above, peptides fused to the TAT-PTD (L-TAT) were tested for inhibition of neurotransmitters and compared to use of L-TAT alone (SEQ ID NO: 3). In vitro screening for synthetic peptides capable of efficiently and selectively blocking neurotransmitter release in the PC12 cell line grown under defined conditions was performed.
PC12 cells were washed with DMEM-WM (Dulbecco's Modified Eagle Medium (GIBCO cat. no. 31968) completed with 25 units of penicillin and streptomycin each) and loaded for 1-2 h with [^3H] norepinephrine (NE; 0.5 μCi/ml) in DMEM-CM (DMEM-WM complemented with 6% horse serum and 6% fetal calf serum). Cells were washed for 1 h with DMEM-WM, and then washed 2 times at 5-minute intervals. Basal release was determined by a 15-minutes incubation with CaSB-glucose 5 mM K^+ (CaSB-glucose: 140 mM NaCl, 5 mM KCl, 2 mM CaCl2, 11 mM glucose, [pH 7.4]). The peptides were added to the cells at defined concentrations after loading with NE but before induction of secretion. Cells were depolarized with 85 mM K^+ (CaSB-glucose with Na^+ reduced accordingly) for 15 minutes to determine stimulated release. Superfusate (1 ml) was removed to tubes. Adherent cells were solubilized in CaSB-glucose-0.1% Triton (1 ml/well). The quantities of released and non-released radiolabeled neurotransmitter were determined by liquid scintillation counting of cleared superfusates and cell lysates, respectively. Total uptake was calculated by addition of released and retained radioactivity, and the percentage release was as calculated (released counts/total uptake counts)×100. Results were also expressed as percent inhibition of neurosecretion.

[2] = target: T1, Recombinant furin (Homo sapiens, UniProt P09958); assay: biochemical; format: biochemical
T1 sequence (P09958 108-794): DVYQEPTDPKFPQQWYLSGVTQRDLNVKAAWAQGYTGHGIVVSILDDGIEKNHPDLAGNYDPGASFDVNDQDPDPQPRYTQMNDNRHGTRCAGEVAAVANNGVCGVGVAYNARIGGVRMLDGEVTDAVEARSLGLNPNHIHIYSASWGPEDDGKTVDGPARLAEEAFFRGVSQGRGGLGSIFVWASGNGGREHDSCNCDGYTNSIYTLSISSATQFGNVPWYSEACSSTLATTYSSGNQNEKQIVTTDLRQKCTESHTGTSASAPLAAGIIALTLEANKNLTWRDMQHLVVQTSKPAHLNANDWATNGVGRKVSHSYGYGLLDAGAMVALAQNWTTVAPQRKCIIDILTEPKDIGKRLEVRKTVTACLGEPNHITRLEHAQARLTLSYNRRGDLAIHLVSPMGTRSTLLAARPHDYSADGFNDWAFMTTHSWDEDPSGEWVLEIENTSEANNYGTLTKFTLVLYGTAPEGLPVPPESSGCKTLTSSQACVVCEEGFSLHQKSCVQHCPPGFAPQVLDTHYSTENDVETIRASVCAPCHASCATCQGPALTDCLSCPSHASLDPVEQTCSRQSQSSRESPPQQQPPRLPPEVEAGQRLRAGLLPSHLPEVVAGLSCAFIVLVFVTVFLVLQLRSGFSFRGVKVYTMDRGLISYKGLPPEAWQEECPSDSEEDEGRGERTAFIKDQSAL
Protocol: To determine if the peptides described herein have an effect on the activity of PC enzymes which are involved in a condition or disorder such as fibrosis, the effect of the peptides on furin activity in vitro was measured as percent inhibition of cleavage of the furin substrate fluorogenic t-butyloxycarbonyl (Boc)-RVRR-7-amino-4-methylcoumarin (MCA).
All in vitro enzyme studies were performed at room temperature in a final volume of 50-100 μl in 96-well flat-bottom black plates. The buffer consisted of 100 mM HEPES, 1 mM CaCl2, 0.5% TritonX-100, and 1 mM 2-β-mercaptoethanol pH 7.5. Assays were performed using Boc-RVRR-MCA as fluorogenic substrate at 100 μM. Recombinant furin (0.8 U of activity) was incubated with Boc-RVRR-MCA in the presence or absence of varying concentrations of synthetic peptides D-9Rac/am (SEQ ID NO. 15), L-Bel1 (SEQ ID NO. 3), or L-9K (SEQ ID NO. 6). One unit of activity is defined as the amount of furin that can release 1 μmol of MCA from the fluorogenic Boc-RVRR-MCA per min at 30° C. The release of highly fluorescent 7-amino 4-methyl coumarin (MCA) from the Boc-RVRR-MCA was monitored by a spectrofluorometer instrument at excitation and emission wavelengths of 370 nm/460 nm. […]

[3] = system: PC-12 cells; assay: Actin cytoskeleton organization, phalloidin-TRITC staining; format: cell-based, rat; conditions: 2 to 10 μM, 30 minutes, labeled or unlabeled
Protocol: Slides with PC-12 cells were prepared as stated previously for localization studies. Briefly, cells were exposed to FITC-labeled or unlabeled peptides, at various concentrations, for 30 minutes, fixed and then permeabilized. Subsequently, F-actin was fluorescently labeled with phalloidin-Tetramethyl Rhodamine Iso-Thiocyanate (TRITC) (Sigma Aldrich) conjugate, diluted on saponin buffer (0.25 μg/ml), and nuclear staining with DAPI dihydrochloride (Sigma Aldrich) (0.02 μg/ml), at room temperature for maximum 30 minutes. Finally, slides were mounted and sealed, and stored at 4° C. protected from light. The effect of the peptides to actin polymerization was analyzed by confocal microscopy, as described before.

[4] = system: rat lung fibroblast (LF); assay: Cell contraction/relaxation on wrinkling silicone substrate, live videomicroscopy; format: cell-based; conditions: 10 μM and 50 μM
Protocol: To study the effect(s) of the peptides on muscle cells, which associate with neurosecretory cells at neuromuscular junctions, peptides were cultured with rat lung fibroblast (LF) grown over wrinkling substrate (silicon) which can mimic the effects of contraction. These cells have a myofibroblastic phenotype, e.g., production of TGF-β, which make them suitable for cellular contraction/relaxation studies.
Wrinkling silicone substrates were prepared as essentially described previously (Harris, et al., Science. 208:177-179, 1980; Hinz, et al., Mol Biol Cell. 12:2730-41, 2001). Briefly, 50 μl of silicone (poly dimethyl siloxane; 30.000 centistokes, Dow Corning, Midland, Mich.) were deposited onto a 35 mm round glass coverslip at the bottom of a self-made observation chamber, which was centrifuged at 1.000 rpm for 2 minutes to spread the viscous fluid. The silicone surface was then crosslinked by passing it through a Bunsen flame; a flaming time of 1 second produced a surface stiffness that restricted wrinkle formation to fibroblasts with high contractile force (Hinz et al., supra). The polymerized silicone surface was finally coated with 10 μg/ml collagen type I (Sigma) for 2 hours at 37° C. Lung fibroblast cells were seeded at a density of 3.5×10^3 cells/cm^2 and cultured for 1-2 days before the experiment. […]

[5] = 10% concentration in oil/water emulsion, 30-day treatment; cited from earlier work
[6] = system: PC12-ES cells; assay: Evoked neurotransmitter secretion by undifferentiated PC12-ES cells, furin inhibitor and arginine rich peptides; format: cell-based, rat; conditions: for inhibition of evoked neurotransmitter secretion by PC12-ES cells: potassium 80 mM, 15 minutes
[7] = system: PC12 cells; format: cell-based, rat
Protocol: […]. Very little toxicity was present at 24 hours, and cytotoxicity at 48 hours was only slightly greater than at 24 hours. Cytotoxicity generally dipped to approximately 90% live cells when peptides were administered at 500 μM.

[8] = target: T2, furin (Rattus norvegicus, UniProt P23377); format: biochemical; conditions: EDTA 50 mM, EGTA 50 mM, Dec-RVKR-CMK 50 μM
T2 construct: Furin activity was constitutively detected in PC12-ES cells; endogenous in cells; host or cells: PC12-ES cells (lysate)
T2 sequence (P23377 108-793): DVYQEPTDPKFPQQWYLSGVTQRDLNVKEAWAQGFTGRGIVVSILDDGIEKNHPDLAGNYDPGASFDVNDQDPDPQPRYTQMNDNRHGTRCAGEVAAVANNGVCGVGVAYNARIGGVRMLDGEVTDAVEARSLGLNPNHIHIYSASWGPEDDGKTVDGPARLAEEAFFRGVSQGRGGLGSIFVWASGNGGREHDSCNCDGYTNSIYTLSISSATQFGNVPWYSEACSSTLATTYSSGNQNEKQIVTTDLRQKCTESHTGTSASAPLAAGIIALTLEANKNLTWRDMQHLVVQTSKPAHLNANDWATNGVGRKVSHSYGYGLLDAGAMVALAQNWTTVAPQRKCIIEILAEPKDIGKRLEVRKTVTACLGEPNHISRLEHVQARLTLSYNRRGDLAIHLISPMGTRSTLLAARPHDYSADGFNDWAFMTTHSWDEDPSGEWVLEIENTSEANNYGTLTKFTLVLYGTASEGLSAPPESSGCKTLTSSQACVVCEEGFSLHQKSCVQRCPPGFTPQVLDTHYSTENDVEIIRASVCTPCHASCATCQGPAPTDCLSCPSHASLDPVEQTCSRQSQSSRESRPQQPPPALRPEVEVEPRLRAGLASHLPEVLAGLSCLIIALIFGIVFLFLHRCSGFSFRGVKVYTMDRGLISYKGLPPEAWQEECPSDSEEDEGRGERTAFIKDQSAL
Protocol: To monitor the intracellular furin activity, 80% confluent PC12-ES cells were washed twice with ice-cold phosphate-buffered saline (PBS1×) by centrifugation at 800×g for 5 minutes at 4° C., resuspended in 100 mM HEPES, 1 mM CaCl2, 0.5% TritonX-100, and 1 mM 2-β-mercaptoethanol, pH 7.5, sonicated 6 times at 4° C. for 10 seconds, and then centrifuged at 8000×g for 20 minutes at 4° C. The protein concentration in the samples was determined using a bicinchonic acid protein assay kit (Pierce Chemical Co.).
Intracellular furin activity was measured with a furin-specific fluorogenic substrate, t-butyloxycarbonyl (Boc)-[…]-7-amino-4-methylcoumarin (MCA). Briefly, the cell lysate (20 μg-60 μg of protein) prepared as described above was incubated with 100 μM Boc-RVRR-MCA in a 96-well flat-bottom black plate for at least 6 hours at room temperature and fluorescence measured by excitation at 365 nm and emission at 450 nm.

[9] = target: T1, Recombinant furin; conditions: CALBIOCHEM; cited from earlier work

9K-L: SEQ ID NO: 6 (GYGKKKKKKKKKG; Synthetic peptide 9K-L)
inhibition of neurotransmitter-evoked secretion ([1]; concentration not given, peptide alone): approximately 20%
concentration for complete blockade of cleavage of Boc-RVRR-MCA by furin [2]: > 3.5 µM
effect on actin content and organization [3]: No effect
relaxing effect on lung myofibroblasts on silicon substrate [4]: not observed

Ac-Glu-Glu-Met-Gln-Arg-Arg-NH2 (Ac-EEMQRR-NH2) [L-Argireline]
inhibition of secretion ([1]; 50 μM (mixture: 50 μM each)): no inhibition
reduced wrinkle depth [5]: up to 30%

Decanoyl-Arg-Val-Lys-Arg-CMK (Decanoyl-RVKR-CH2Cl) [FI-I, reference compound]
dose dependence of inhibition of evoked secretion [6]: dose dependent
inhibition of evoked neurotransmitter secretion by PC12-ES cells ([6]; 10 μM): 12.6%
inhibition of evoked neurotransmitter secretion by PC12-ES cells ([6]; 100 μM): 50%
cytotoxicity (MTT) [7]: no marked cytotoxicity
inhibition of in vitro furin activity (in words) ([2]; Boc-RVRR-MCA 100 μM as substrate): inhibited
inhibition of intracellular furin activity (in words) [8]: inhibited
Ki [9]: 1 nM
